According to patent US20080279843A1, “Method For Improving Insulin Sensitivity By Administering an Inhibitor of Antitrypsin” (Essential SkinCare, LLC, priority 2003, published 2008):

Assays:
[1] = tested on: differentiated rat L6 muscle cells; experiment: Cellular uptake of D-[14C]glucose; type: cell-based
Procedure: Rat L6 skeletal muscle cells were obtained from the American Type Culture Collection, Rockville, Md. L6 cell monolayers were induced to differentiate in Minimal Essential Medium (MEM) containing 2% (v/v) fetal bovine serum (FBS) and 1% (v/v) antibiotic/antimycotic solution. The cells were fed fresh medium every 48 hours. Myoblast differentiation, which occurred by about the 7-9th day, was monitored by phase contrast microscopy. Differentiated L6 cells are widely used models for studying glucose metabolism in the skeletal muscle. The present study was focused on these cells, because skeletal muscle accounts for about 70-80% of total blood glucose metabolism in the human body.
To examine cellular glucose uptake and metabolism, differentiated (attached) cells in 12-well plates were incubated at 37° C. in a CO2 incubator (95% air: 5% CO2) with D-[^14C]glucose (1 μCi/mL) in 2% FBS-containing medium containing 5.5 mM unlabeled glucose for 0.5-6 hours as indicated at the corresponding Figures. At the termination of incubation, the medium was removed. An aliquot of the medium was taken to determine the loss of [^14C]glucose from the medium which corresponds to its uptake by cells. Cells were washed twice with 3 ml medium to remove traces of medium containing unincorporated radioactivity. Ice-cold 99.8% methanol/0.2% water (v/v) mixture (1 ml) was then added to the monolayers and cells were extracted for 2 hours at −20° C. […] The methanol phase (1 ml) and a following 1 ml methanol wash were added to 2 ml chloroform followed by the addition of 3 ml water. Of the resulting two phases (separation was facilitated by brief centrifugation), the lower phase contained the total radiolabeled lipids, while the upper phase contained [^14C]glucose.
Aliquots of the upper and lower phases were taken to scintillation vials to determine the amounts of radiolabeled glucose and total lipids, respectively, by liquid scintillation counting. Precipitated [^14C]glycogen was suspended in 0.75 ml of 1 M NaOH and transferred to scintillation vial. This procedure was repeated with another 0.75 ml aliquot of NaOH. To neutralize the suspension, […] (approximately 150 μL) was then added to the vials, followed by the addition of 8.5 ml Ecolume (scintillation fluid). While the 1 M NaOH suspension contained some particulate material (mostly protein which was not labeled with radiolabeled glucose), no precipitate remained in the suspension after addition of Ecolume. […] No additional radioactivity could be removed from the well by neutralized 30% KOH.
Three groups of differentiated L6 cells, incubated in 12-well plates in 2% FBS-containing medium, were treated as follows. A first control group ([…]) was untreated. A second group (▴) was treated with 500 nM insulin for 30 min. A third group (▪) was treated first with 0.4 mg/ml of AT followed by an addition of 500 nM insulin for 30 min. Following the addition of D-[^14C]glucose, each group was incubated in the continuous presence of insulin and AT, as described above, for 0.5-6 hours.
Four groups of differentiated L6 cells, incubated in 12-well plates in 2% FBS-containing medium, were treated as follows. A first control group was untreated. A second group was treated with 500 nM insulin for 30 min. A third group was treated with 0.05 to 0.4 mg/ml of AT for 10 min. Finally, a fourth group was treated with 0.05 to 0.4 mg/ml of AT for 10 min followed by the addition of 500 nM insulin for 30 min. […]

C57/Black female mice = experiment: Glucose tolerance test with insulin and purified AT (Example 3); type: in vivo; settings: highly purified AT 1.2 mg/mouse i.p. 24 h prior to insulin; glucose 3 g/kg i.p.
Procedure: C57/Black female mice weighing 23-25 g were fasted for 16 hours. Five animals were used for each of the three treatment groups. The first treatment group received intraperitoneal injections of 1200 μg purified AT, i.e. AT purified by the procedure of Example 1. Exactly 23 hours and 45 minutes after the AT was administered to the first treatment group, the animals in the first and second treatment group received 0.5 I.U. of insulin. Exactly 15 minutes after the insulin was administered (i.e., 24 hours after AT was administered to the first treatment group), glucose (3 g/kg) was injected intraperitoneally into the first, second and third treatment group. Blood samples were immediately measured with the fast Glucose C test (Wako Chemicals Inc. Richmond, Va., USA). The data presented are the mean ±S.D. of five determinations, one with each animal.

With α1-antitrypsin [AT] the “Effect of AT on the insulin effect on cellular [14C]glucose, short incubation” value ([1]; 0.4 mg/ml AT, 500 nM insulin, 30 min incubation) was “no such inhibitory effects”, the “Effect of AT on insulin-stimulated uptake of D-[14C]glucose” value ([1]; FIG. 3A, 0.4 mg/ml purified AT, incubations for 2 hrs or 6 hours) was “inhibited both insulin effects” and the “Effect of AT on cellular level of [14C]glucose in the absence of insulin” value ([1]; FIG. 4A, 0.05 to 0.4 mg/ml AT, 5 hours) was “did not significantly affect”. For the same substance, the “Decrease of cellular level of [14C]glucose by AT in the presence of insulin” value ([1]; FIG. 4A, 0.2 to 0.4 mg/ml AT, 500 nM insulin, 5 hours) was “at least 50%” and the “Effect of AT on the action of insulin on blood glucose level” value (C57/Black female mice) was “blocked the action of insulin”.
